Experiments:
[1] = target: endogenous glucocorticoid receptor (A549 cells) (Homo sapiens, UniProt P04150); conditions: concentration ≦10 μM; 10 ng/mL PMA stimulation; typical value of positive control
Method: The AP-1 assay is a cell-based luciferase reporter assay. A549 cells, which contain endogenous glucocorticoid receptor, were stably transfected with an AP-1 DNA binding site attached to the luciferase gene. Cells are then grown in RPMI+10% fetal calf serum (charcoal-treated)+Penicillin/Streptomycin with 0.5 mg/mL geneticin. Cells are plated the day before the assay at approximately 40000 cells/well. On assay day, the media is removed by aspiration and 20 μL assay buffer (RPMI without phenol red+10% FCS (charcoal-treated)+Pen/Strep) is added to each well. At this point either 20 μL assay buffer (control experiments), the compounds of the present invention (“test compounds”) (dissolved in DMSO and added at varying concentrations) or dexamethasome (100 nM in DMSO, positive control) are added to each well. The plates are then pre-incubated for 15 min at 37° C., followed by stimulation of the cells with 10 ng/mL PMA. The plates are then incubated for 7 h at 37° C. after which 40 μL luciferase substrate reagent is added to each well.

[2] = target: T1, AR (Rattus norvegicus, UniProt P15207)
T1 sequence (P15207 1-902): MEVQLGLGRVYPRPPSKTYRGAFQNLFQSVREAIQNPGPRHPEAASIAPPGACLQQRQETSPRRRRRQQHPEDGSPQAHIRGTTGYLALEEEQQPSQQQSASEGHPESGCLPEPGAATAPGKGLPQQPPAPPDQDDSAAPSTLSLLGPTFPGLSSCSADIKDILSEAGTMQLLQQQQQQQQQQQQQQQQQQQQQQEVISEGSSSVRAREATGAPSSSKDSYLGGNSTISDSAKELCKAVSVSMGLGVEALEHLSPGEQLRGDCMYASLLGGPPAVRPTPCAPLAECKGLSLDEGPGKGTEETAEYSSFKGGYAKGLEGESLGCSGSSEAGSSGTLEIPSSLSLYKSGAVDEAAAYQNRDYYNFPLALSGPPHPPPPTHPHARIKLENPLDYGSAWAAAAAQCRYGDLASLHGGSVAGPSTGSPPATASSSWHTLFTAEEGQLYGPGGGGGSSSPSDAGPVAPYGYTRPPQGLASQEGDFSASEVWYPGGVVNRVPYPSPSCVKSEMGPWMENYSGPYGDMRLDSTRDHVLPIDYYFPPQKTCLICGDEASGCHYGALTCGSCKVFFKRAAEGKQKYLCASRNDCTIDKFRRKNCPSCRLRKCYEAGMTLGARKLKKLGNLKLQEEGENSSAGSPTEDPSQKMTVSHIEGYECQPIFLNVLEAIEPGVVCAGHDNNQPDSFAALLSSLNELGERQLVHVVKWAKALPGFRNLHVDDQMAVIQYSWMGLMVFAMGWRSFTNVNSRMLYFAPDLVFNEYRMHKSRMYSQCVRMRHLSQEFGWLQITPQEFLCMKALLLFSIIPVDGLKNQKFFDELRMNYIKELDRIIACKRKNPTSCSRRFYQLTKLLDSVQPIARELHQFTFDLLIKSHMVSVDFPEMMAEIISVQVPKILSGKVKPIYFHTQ
Description: The activity of compounds of the present invention as AR agonists was investigated in an immature male rat model, a recognized test of anabolic effects in muscle and sustaining effects in sex organs for a given compound, as described in L. G. Hershberger et al., Proc. Soc. […] Biol. Med., 83, 175 (1953); B. L. Beyler et al, “Methods for evaluating anabolic and catabolic agents in laboratory animals”, J. Amer. Med. Women's Ass., 23, 708 (1968); H. Fukuda et al., “Investigations of the levator ani muscle as an anabolic steroid assay”, Nago Dai. Yak. Ken. Nem. 14, 84 (1966) the disclosures of which are herein incorporated by reference.
The basis of this assay lies in the well-defined action of androgenic agents on the maintenance and growth of muscle tissues and sexual accessory organs in animals and man. […] J. Anat. […] Ital. Biol. Sper. […] II. […] Ital. Biol. Sper. 42, 1600 (1966); A. Boris et al., Steroids 15, 61 (1970). As described above, the effects of androgens on maintenance of male sexual accessory organs, such as the prostate and seminal vesicles, is well described. Castration results in rapid involution and atrophy of the prostate and seminal vesicles. This effect can be reversed by exogenous addition of androgens. […]

[3] = target: wild type AR (MDA 453); conditions: read-out: Kd for [3H]-DHT; MDA 453 cells, Scatchard analysis
Method: For the whole-cell binding assay, human LNCaP cells (T877A mutant AR) or MDA 453 (wild type AR) in 96-well microtiter plates containing RPMI 1640 or DMEM supplemented with 10% charcoal stripped CA-FBS (Cocaleco Biologicals) respectively, were incubated at 37° C. to remove any endogenous ligand that might be complexed with the receptor in the cells.
For the saturation analysis, the difference between the total binding and the non-specific binding, was defined as specific binding. […] See e.g. D. Rodbard, Mathematics and statistics of ligand assays: an illustrated guide: In: J. Langon and J. J. Clapp, eds., Ligand Assay, Masson Publishing U.S.A., Inc., New York, pp. 45-99, (1981), the disclosure of which is herein incorporated by reference.
[formula] After correcting for non-specific binding, IC50 values were determined. […] C2C12 Mouse Myoblast Transactivation Assay

endogenous glucocorticoid receptor (A549 cells), sequence (P04150 whole entry): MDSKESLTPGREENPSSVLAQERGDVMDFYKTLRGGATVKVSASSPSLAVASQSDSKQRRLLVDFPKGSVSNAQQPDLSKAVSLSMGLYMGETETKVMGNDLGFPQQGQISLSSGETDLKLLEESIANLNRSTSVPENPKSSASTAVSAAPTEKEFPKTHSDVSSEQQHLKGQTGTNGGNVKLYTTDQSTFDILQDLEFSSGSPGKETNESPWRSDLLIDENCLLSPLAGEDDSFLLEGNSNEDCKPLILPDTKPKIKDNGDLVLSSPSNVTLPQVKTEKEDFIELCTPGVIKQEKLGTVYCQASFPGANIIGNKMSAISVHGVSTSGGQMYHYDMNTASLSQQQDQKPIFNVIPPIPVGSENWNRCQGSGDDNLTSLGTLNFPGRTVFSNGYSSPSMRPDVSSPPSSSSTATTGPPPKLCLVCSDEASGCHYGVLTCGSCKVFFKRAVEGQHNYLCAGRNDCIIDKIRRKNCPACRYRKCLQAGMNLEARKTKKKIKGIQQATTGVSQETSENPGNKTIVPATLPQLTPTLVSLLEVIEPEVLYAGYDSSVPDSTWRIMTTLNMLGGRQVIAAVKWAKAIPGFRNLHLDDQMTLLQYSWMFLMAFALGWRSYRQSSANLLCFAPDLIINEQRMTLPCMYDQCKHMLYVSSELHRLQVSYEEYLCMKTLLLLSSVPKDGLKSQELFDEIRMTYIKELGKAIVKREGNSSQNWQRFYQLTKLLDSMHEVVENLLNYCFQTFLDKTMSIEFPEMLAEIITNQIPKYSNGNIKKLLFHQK

Compound: C[C@@H]1C[C@H]2[C@@H]3CCC4=CC(=O)C=C[C@]4(C)[C@@]3(F)[C@@H](O)C[C@]2(C)[C@@]1(O)C(=O)CO [dexamethasone]
- suppression of activity (% inhibition of the reporter system vs buffer control) [1]: 65%

Compound: CCC(=O)O[C@H]1CC[C@H]2[C@@H]3CCC4=CC(=O)CC[C@]4(C)[C@H]3CC[C@]12C [TP, testosterone propionate]
- potency relative to free T ([2]; TP versus free T): 10-30 fold
- EC50 (increase in organ weight) ([2]; immature castrated rats, dosing for 3 days): ~0.03 mg

Compound: tritiated dihydrotestosterone [[^3H]-DHT]
- Kd [3]: 0.7 nM

Reference: US7989640B2, “Sulfonylpyrrolidine modulators of androgen receptor function and method” (Bristol-Myers Squibb Company, priority 2004, dated 2011)
